Our source for the EC50 values is BindingDB's records for doi:10.1016/s0960-894x(02)00602-9 (Bayer, 2002).

As usually defined, the EC50 is the concentration needed to bring the measured effect to its halfway point.

SMILES strings stand for the structures.

The nature of assay [1]: Concentration required to inhibit human recombinant Poly (ADP-ribose) polymerase 1 was determined using cell protection assay.
Assay [2] is described as follows: Concentration required to inhibit human recombinant PARP-1 was determined using cell protection assay.
A short description of assay [3]: Concentration required to inhibit human recombinant Poly (ADP-ribose) polymerase 1 was determined using cell protection assay. The source holds these as a separate data set.

As to `O=C(CCn1c2c(c(=O)[nH]c1=O)CSCC2)NCC(=O)c1ccc(Cl)cc1` [N-[2-(4-Chloro-phenyl)-2-oxo-ethyl]-3-(2,4-dioxo-3,4,7,8-tetrahydro-2H,5H-thiopyrano[4,3-d]pyrimidin-1-yl)-propionamide], the EC50 in assay [1] turned out to be 500 nM.

Take `O=C(CCn1c2c(c(=O)[nH]c1=O)CSCC2)NCC(=O)c1cccc(Br)c1` [N-[2-(3-Bromo-phenyl)-2-oxo-ethyl]-3-(2,4-dioxo-3,4,7,8-tetrahydro-2H,5H-thiopyrano[4,3-d]pyrimidin-1-yl)-propionamide]: the EC50 in assay [2] worked out at 3500 nM. With `O=C(CCn1c2c(c(=O)[nH]c1=O)CSCC2)NCC(=O)c1ccc2ccccc2c1` [3-(2,4-Dioxo-3,4,7,8-tetrahydro-2H,5H-thiopyrano[4,3-d]pyrimidin-1-yl)-N-(2-naphthalen-2-yl-2-oxo-ethyl)-propionamide], the EC50 in assay [1] was 80 nM. Turning to `O=C(CCn1c2c(c(=O)[nH]c1=O)CSCC2)NCC(=O)N1CCN(c2cc(C(F)(F)F)ccn2)CC1` [3-(2,4-Dioxo-3,4,7,8-tetrahydro-2H,5H-thiopyrano[4,3-d]pyrimidin-1-yl)-N-{2-oxo-2-[4-(4-trifluoromethyl-pyridin-2-yl)-piperazin-1-yl]-ethyl}-propionamide], in assay [1], the EC50 came to 100 nM.

With `Nc1cccnc1N1CCN(C(=O)CNC(=O)CCn2c3c(c(=O)[nH]c2=O)CSCC3)CC1` [N-{2-[4-(3-Amino-pyridin-2-yl)-piperazin-1-yl]-2-oxo-ethyl}-3-(2,4-dioxo-3,4,7,8-tetrahydro-2H,5H-thiopyrano[4,3-d]pyrimidin-1-yl)-propionamide], the EC50 in assay [1] was 700 nM. In the case of `O=C(CCn1c2c(c(=O)[nH]c1=O)CSCC2)NCC(=O)c1ccc(OC(F)F)cc1` [N-[2-(4-Difluoromethoxy-phenyl)-2-oxo-ethyl]-3-(2,4-dioxo-3,4,7,8-tetrahydro-2H,5H-thiopyrano[4,3-d]pyrimidin-1-yl)-propionamide], the EC50 in assay [2] worked out at 200 nM.

As for `COc1ccc(C(=O)CNC(=O)CCn2c3c(c(=O)[nH]c2=O)CSCC3)cc1` [3-(2,4-dioxo-2,3,4,5,7,8-hexahydro-1H-thiopyrano[4,3-d]pyrimidin-1-yl)-N-(2-(4-methoxyphenyl)-2-oxoethyl)propanamide], the EC50 in assay [2] is 80 nM.

For the compound `O=C(CCn1c2c(c(=O)[nH]c1=O)CSCC2)NCC(=O)N1CCN(c2ccccn2)CC1` [3-(2,4-Dioxo-3,4,7,8-tetrahydro-2H,5H-thiopyrano[4,3-d]pyrimidin-1-yl)-N-[2-oxo-2-(4-pyridin-2-yl-piperazin-1-yl)-ethyl]-propionamide], in assay [1], the EC50 worked out at 100 nM. `O=C(CCn1c2c(c(=O)[nH]c1=O)CSCC2)NCC(=O)N1CCN(c2ncccc2C(F)(F)F)CC1` [3-(2,4-Dioxo-3,4,7,8-tetrahydro-2H,5H-thiopyrano[4,3-d]pyrimidin-1-yl)-N-{2-oxo-2-[4-(3-trifluoromethyl-pyridin-2-yl)-piperazin-1-yl]-ethyl}-propionamide]: the EC50 in assay [2] came out at 100 nM. On the same count and under the same terms, the figure for `O=C(CCn1c2c(c(=O)[nH]c1=O)CSCC2)NCC(=O)c1ccc(-c2ccccc2)cc1` [N-(2-Biphenyl-4-yl-2-oxo-ethyl)-3-(2,4-dioxo-3,4,7,8-tetrahydro-2H,5H-thiopyrano[4,3-d]pyrimidin-1-yl)-propionamide] is 500 nM. Regarding `Nc1cccc(-c2ccc(C(=O)CNC(=O)CCn3c4c(c(=O)[nH]c3=O)CSCC4)cc2)c1` [N-[2-(3'-Amino-biphenyl-4-yl)-2-oxo-ethyl]-3-(2,4-dioxo-3,4,7,8-tetrahydro-2H,5H-thiopyrano[4,3-d]pyrimidin-1-yl)-propionamide], the EC50 in assay [1] was 70 nM. In the case of `O=C(CCn1c2c(c(=O)[nH]c1=O)CSCC2)NCC(=O)N1CCN(c2ccccc2)CC1` [3-(2,4-Dioxo-3,4,7,8-tetrahydro-2H,5H-thiopyrano[4,3-d]pyrimidin-1-yl)-N-[2-oxo-2-(4-phenyl-piperazin-1-yl)-ethyl]-propionamide], the EC50 in assay [3] came out at 100 nM.
